# Data: US12139480B2, “5-thiazolecarboxamide kinase inhibitor and uses thereof” (iOmx Therapeutics AG, priority 2018, dated 2024)
# Like-named read-outs stand apart in the source and are kept apart here.
# How the values were obtained:
# PDGFR-alpha = target: T1, PDGFR-alpha (Homo sapiens, UniProt P16234); assay: single-point (1 uM) inhibition assay (ProQinase Kinase Profiler); type: biochemical; settings: read-out: % residual activity class (FIG. 3)
# T1 construct: purchased ProQinase
# ACK1 = target: T2, ACK1 (Homo sapiens, UniProt Q07912); assay: as above; type: biochemical; settings: 1 uM compound, read-out: % residual activity class (FIG. 3)
# T2 construct: purchased ProQinase
# TXK = target: T3, TXK (Homo sapiens, UniProt P42681); assay: as above; type: biochemical; settings: 1 uM compound, read-out: % residual activity class (FIG. 3)
# T3 construct: purchased ProQinase
# DDR2 = target: T4, DDR2 (Homo sapiens, UniProt Q16832); assay: as above; type: biochemical; settings: 1 uM compound, read-out: % residual activity class (FIG. 3)
# T4 construct: purchased ProQinase, Freiburg, Germany (Kinase Profiler panel)
# KIT = target: T5, KIT (Homo sapiens, UniProt P10721); assay: as above; type: biochemical
# T5 construct: purchased ProQinase
# BRK = target: T6, BRK (Homo sapiens, UniProt Q13882); assay: as above; type: biochemical; settings: 1 uM compound, read-out: % residual activity class (FIG. 3)
# T6 construct: purchased ProQinase
# FGR = target: T7, FGR (Homo sapiens, UniProt P09769); assay: as above; type: biochemical; settings: 1 uM compound, read-out: % residual activity class (FIG. 3)
# T7 construct: purchased ProQinase
# CSF1-R = target: T8, CSF1-R (Homo sapiens, UniProt P07333); assay: as above; type: biochemical; settings: 1 uM compound, read-out: % residual activity class (FIG. 3)
# T8 construct: purchased ProQinase
# EPHA3 = target: T9, EPHA3 (Homo sapiens, UniProt P29320); assay: as above; type: biochemical
# T9 construct: purchased ProQinase
# ACV-R1 = target: T10, ACV-R1 (Homo sapiens, UniProt Q04771); assay: as above; type: biochemical; settings: read-out: % residual activity class (FIG. 3)
# T10 construct: purchased ProQinase
# EPHB2 = target: T11, EPHB2 (Homo sapiens, UniProt P29323); assay: as above; type: biochemical; settings: read-out: % residual activity class (FIG. 3)
# T11 construct: purchased ProQinase
# SIK2 = target: T12, SIK2 (Homo sapiens, UniProt Q9H0K1); assay: as above; type: biochemical; settings: read-out: % residual activity class (FIG. 3)
# T12 construct: purchased ProQinase
# MAP4K5 = target: T13, MAP4K5 (Homo sapiens, UniProt Q9Y4K4); assay: as above; type: biochemical; settings: read-out: % residual activity class (FIG. 3)
# T13 construct: purchased ProQinase
# EPHB1 = target: T14, EPHB1 (Homo sapiens, UniProt P54762); assay: as above; type: biochemical
# T14 construct: purchased ProQinase
# ZAK = target: T15, ZAK (Homo sapiens, UniProt Q9NYL2); assay: as above; type: biochemical; settings: 1 uM compound, read-out: % residual activity class (FIG. 3)
# T15 construct: purchased ProQinase
# ACV-RL1 = target: T16, ACV-RL1 (Homo sapiens, UniProt P37023); assay: as above; type: biochemical; settings: 1 uM compound, read-out: % residual activity class (FIG. 3)
# T16 construct: purchased ProQinase
# LYN = target: T17, LYN (Homo sapiens, UniProt P07948); assay: as above; type: biochemical; settings: 1 uM compound, read-out: % residual activity class (FIG. 3)
# T17 construct: purchased ProQinase
# MDCK-wild type cells = settings: dog
# FRK = target: T18, FRK (Homo sapiens, UniProt P42685); assay: single-point (1 uM) inhibition assay (ProQinase Kinase Profiler); type: biochemical; settings: 1 uM compound, read-out: % residual activity class (FIG. 3)
# T18 construct: purchased ProQinase
# BLK = target: T19, BLK (Homo sapiens, UniProt P51451); assay: as above; type: biochemical; settings: 1 uM compound, read-out: % residual activity class (FIG. 3)
# T19 construct: purchased ProQinase
# TEC = target: T20, TEC (Homo sapiens, UniProt P42680); assay: as above; type: biochemical; settings: 1 uM compound, read-out: % residual activity class (FIG. 3)
# T20 construct: purchased ProQinase
# CSK = target: T21, CSK (Homo sapiens, UniProt P41240); assay: as above; type: biochemical; settings: 1 uM compound, read-out: % residual activity class (FIG. 3)
# T21 construct: purchased ProQinase
# SIK1 = target: T22, SIK1 (Homo sapiens, UniProt P57059); assay: as above; type: biochemical; settings: read-out: % residual activity class (FIG. 3)
# T22 construct: purchased ProQinase
# NLK = target: T23, NLK (Homo sapiens, UniProt Q9UBE8); assay: as above; type: biochemical; settings: 1 uM compound, read-out: % residual activity class (FIG. 3)
# T23 construct: purchased ProQinase
# MDCK-MDR1 cells = settings: dog
# p38-alpha = target: T24, p38-alpha (Homo sapiens, UniProt Q16539); assay: single-point (1 uM) inhibition assay (ProQinase Kinase Profiler); type: biochemical; settings: read-out: % residual activity class (FIG. 3)
# T24 construct: purchased ProQinase
# ACV-R1B = target: T25, ACV-R1B (Homo sapiens, UniProt P36896); assay: as above; type: biochemical; settings: read-out: % residual activity class (FIG. 3)
# T25 construct: purchased ProQinase
# PDGFR-beta = target: T26, PDGFR-beta (Homo sapiens, UniProt P09619); assay: biochemical
# T26 construct: purchased ProQinase
# RET = target: T27, RET (Homo sapiens, UniProt P07949); assay: single-point (1 uM) inhibition assay (ProQinase Kinase Profiler); type: biochemical
# T27 construct: purchased ProQinase, Freiburg, Germany (Kinase Profiler panel)
# SIK3 = target: T28, SIK3 (Homo sapiens, UniProt Q9Y2K2); assay: as above; type: biochemical; settings: read-out: % residual activity class (FIG. 3)
# T28 construct: purchased ProQinase
# NIK = NIK (Homo sapiens, UniProt Q99558); assay: biochemical; settings: read-out: Residual activity (%) at 1 uM
# FYN = FYN (Homo sapiens, UniProt P06241); assay: single-point (1 uM) inhibition assay (ProQinase Kinase Profiler); settings: read-out: % residual activity class (FIG. 3)
# RIPK2 = target: T29, RIPK2 (Homo sapiens, UniProt O43353); assay: as above; type: biochemical; settings: 1 uM compound, read-out: % residual activity class (FIG. 3)
# T29 construct: purchased ProQinase
# ABL2 = target: T30, ABL2 (Homo sapiens, UniProt P42684); assay: as above; type: biochemical; settings: 1 uM compound, read-out: % residual activity class (FIG. 3)
# T30 construct: purchased ProQinase
# SRMS = target: T31, SRMS (Homo sapiens, UniProt Q9H3Y6); assay: as above; type: biochemical; settings: 1 uM compound, read-out: % residual activity class (FIG. 3)
# T31 construct: purchased ProQinase
# HCK = target: T32, HCK (Homo sapiens, UniProt P08631); assay: as above; type: biochemical; settings: 1 uM compound, read-out: % residual activity class (FIG. 3)
# T32 construct: purchased ProQinase
# BMPR1A = target: T33, BMPR1A (Homo sapiens, UniProt P36894); assay: as above; type: biochemical
# T33 construct: purchased ProQinase, Freiburg, Germany (Kinase Profiler panel)
# ACV-R2B = ACV-R2B (Homo sapiens, UniProt Q13705); assay: biochemical; settings: read-out: % residual activity class (FIG. 3)
# [1] = cited from earlier work
# [2] = read-out: % residual activity class (FIG. 3)
# [3] = read-out: Residual activity (%) at 1 uM
# [4] = PDGFR-beta, 1 uM compound, read-out: % residual activity class (FIG. 3)
# [5] = read-out: Residual activity (%) at 1 uM, RET
# T26 sequence (P09619 33-1106): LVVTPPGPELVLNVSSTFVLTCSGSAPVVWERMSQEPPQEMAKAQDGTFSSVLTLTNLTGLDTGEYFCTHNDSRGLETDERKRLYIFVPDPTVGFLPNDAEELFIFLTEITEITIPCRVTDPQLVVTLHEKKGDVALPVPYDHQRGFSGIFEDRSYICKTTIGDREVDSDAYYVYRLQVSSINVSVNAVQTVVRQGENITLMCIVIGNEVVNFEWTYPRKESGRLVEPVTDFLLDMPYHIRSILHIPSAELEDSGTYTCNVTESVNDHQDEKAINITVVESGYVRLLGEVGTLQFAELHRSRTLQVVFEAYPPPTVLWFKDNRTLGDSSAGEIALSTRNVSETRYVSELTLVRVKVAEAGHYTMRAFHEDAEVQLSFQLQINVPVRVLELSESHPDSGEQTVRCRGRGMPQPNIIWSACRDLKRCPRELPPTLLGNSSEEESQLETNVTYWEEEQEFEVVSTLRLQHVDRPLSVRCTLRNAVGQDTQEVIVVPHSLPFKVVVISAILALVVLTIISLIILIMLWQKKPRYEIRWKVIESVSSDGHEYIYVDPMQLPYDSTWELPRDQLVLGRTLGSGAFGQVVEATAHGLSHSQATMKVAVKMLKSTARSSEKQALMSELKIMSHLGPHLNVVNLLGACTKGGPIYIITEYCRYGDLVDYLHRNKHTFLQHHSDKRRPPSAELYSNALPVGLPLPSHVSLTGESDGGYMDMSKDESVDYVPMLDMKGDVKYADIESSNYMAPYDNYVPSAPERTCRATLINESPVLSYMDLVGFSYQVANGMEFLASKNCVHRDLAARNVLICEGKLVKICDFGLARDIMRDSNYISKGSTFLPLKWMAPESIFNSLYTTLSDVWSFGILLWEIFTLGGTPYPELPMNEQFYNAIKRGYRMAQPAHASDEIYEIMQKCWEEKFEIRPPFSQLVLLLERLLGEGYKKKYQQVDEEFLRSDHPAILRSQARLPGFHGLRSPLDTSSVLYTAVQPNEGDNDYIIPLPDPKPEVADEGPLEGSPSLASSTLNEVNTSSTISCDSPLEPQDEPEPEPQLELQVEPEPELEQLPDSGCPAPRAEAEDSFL
# T9 sequence (P29320 21-983): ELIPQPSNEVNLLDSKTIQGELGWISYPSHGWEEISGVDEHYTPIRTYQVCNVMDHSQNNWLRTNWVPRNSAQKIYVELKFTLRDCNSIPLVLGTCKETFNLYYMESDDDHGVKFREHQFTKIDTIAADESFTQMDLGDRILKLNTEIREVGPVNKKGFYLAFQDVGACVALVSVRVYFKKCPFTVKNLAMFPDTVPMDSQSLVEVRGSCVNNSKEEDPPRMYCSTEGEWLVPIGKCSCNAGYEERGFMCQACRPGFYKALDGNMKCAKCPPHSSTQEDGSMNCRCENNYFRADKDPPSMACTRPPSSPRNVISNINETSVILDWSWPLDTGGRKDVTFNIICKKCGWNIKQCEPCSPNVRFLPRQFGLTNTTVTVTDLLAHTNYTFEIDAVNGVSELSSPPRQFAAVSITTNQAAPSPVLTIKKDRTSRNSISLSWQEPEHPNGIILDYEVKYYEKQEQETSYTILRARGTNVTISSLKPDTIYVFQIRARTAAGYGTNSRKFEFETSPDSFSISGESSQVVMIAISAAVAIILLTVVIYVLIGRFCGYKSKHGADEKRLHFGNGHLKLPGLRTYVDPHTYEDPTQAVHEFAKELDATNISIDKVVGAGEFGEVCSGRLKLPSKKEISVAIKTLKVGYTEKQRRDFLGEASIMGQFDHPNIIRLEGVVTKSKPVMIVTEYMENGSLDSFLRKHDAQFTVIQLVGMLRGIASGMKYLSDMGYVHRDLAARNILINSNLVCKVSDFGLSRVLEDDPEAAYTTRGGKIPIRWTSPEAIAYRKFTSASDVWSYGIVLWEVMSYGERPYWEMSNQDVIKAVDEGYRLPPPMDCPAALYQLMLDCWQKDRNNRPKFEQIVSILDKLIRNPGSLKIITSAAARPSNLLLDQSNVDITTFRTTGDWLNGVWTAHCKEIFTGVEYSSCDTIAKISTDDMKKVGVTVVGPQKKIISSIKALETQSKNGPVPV
# T27 sequence (P07949 29-1114): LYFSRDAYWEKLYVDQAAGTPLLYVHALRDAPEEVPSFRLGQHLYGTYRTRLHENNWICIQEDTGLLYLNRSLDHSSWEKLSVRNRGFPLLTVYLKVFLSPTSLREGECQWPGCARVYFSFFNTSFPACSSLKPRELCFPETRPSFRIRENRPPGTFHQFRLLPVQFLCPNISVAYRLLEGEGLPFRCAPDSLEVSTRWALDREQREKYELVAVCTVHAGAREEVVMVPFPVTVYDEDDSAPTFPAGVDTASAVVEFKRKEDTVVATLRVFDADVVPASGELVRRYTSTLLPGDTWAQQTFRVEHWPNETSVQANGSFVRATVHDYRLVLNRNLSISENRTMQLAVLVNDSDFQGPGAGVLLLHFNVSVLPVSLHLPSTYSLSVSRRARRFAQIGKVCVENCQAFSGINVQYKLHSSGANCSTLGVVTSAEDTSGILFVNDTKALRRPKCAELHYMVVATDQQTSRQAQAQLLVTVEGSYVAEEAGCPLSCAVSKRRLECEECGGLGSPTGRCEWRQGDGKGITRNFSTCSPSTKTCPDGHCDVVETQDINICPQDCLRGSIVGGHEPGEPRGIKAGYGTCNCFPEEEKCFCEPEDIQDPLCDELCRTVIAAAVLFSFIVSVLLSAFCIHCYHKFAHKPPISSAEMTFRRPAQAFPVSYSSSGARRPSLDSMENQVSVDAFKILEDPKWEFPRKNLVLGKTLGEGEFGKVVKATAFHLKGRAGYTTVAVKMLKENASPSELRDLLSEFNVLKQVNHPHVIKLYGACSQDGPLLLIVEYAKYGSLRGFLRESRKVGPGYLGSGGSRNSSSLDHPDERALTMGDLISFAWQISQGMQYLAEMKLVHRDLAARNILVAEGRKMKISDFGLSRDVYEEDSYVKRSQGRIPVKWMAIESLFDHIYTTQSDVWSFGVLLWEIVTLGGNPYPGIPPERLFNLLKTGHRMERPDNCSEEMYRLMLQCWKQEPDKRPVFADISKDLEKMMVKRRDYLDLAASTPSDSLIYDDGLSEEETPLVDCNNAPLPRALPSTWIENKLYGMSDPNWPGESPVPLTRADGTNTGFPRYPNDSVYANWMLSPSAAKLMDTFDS
# T14 sequence (P54762 18-984): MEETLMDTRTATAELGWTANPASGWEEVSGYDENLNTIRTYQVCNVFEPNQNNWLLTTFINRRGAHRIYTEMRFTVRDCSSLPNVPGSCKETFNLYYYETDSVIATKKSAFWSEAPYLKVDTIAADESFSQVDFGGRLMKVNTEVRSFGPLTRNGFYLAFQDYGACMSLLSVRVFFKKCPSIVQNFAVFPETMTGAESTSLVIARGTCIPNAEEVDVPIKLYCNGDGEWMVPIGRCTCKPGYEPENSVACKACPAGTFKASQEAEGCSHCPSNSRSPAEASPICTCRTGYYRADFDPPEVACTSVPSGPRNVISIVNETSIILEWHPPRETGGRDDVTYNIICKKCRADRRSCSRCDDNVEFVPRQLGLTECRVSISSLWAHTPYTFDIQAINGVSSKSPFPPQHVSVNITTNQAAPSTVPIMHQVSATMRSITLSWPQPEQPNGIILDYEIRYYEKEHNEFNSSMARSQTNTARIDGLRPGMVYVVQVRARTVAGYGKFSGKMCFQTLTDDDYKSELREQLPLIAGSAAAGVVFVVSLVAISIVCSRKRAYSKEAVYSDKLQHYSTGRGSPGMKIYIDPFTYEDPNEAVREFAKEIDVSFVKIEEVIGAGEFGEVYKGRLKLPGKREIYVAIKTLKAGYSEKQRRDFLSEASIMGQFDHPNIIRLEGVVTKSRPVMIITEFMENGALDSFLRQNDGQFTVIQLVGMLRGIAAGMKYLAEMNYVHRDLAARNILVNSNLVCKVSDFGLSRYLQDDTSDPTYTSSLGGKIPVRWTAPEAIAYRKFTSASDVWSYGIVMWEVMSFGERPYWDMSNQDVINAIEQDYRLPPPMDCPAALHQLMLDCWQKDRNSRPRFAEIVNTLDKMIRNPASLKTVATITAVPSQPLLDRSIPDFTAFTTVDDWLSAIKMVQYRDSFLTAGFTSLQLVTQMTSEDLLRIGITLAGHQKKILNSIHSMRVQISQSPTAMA
# T7 sequence (P09769 whole entry): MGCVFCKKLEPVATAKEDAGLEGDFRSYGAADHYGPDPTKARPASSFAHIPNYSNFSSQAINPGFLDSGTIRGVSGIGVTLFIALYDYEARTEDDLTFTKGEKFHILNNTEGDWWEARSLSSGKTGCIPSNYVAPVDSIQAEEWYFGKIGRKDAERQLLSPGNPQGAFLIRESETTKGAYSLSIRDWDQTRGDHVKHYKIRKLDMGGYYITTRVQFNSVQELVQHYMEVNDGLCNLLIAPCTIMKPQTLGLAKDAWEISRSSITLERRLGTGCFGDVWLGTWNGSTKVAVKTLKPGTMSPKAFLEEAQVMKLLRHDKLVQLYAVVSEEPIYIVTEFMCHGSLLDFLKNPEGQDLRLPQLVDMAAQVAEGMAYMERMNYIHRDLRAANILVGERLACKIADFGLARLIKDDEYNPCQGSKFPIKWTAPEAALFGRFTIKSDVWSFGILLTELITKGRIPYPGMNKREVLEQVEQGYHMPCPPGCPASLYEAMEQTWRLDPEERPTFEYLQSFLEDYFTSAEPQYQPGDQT
# T24 sequence (Q16539 whole entry): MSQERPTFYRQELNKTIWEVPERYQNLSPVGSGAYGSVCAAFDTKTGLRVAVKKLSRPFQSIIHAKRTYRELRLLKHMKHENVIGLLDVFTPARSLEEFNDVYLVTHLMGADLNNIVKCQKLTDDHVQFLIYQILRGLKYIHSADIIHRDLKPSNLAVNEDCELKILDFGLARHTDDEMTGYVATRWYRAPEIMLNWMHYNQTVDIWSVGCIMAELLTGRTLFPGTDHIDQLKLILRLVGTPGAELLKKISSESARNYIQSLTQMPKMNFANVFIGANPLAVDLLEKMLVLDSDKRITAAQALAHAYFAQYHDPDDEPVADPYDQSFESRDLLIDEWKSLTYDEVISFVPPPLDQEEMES
smiles,measurement,setting,value
"Cc1nc(Nc2ncc(C(=O)Nc3c(Cl)ccnc3C)s2)cc(N2CCN(CCO)CC2)n1 [Compound B3, N-(4-chloro-2-methylpyridin-3-yl)-2-((6-(4-(2-hydroxyethyl)piperazin-1-yl)-2-methylpyrimidin-4-yl)amino)thiazole-5-carboxamide]",remaining activity at 1 µM,PDGFR-alpha,< 25%
same,remaining activity at 1 µM,ACK1,< 25%
same,remaining activity at 1 µM,TXK,< 25%
same,remaining activity at 1 µM,DDR2,< 25%
same,remaining activity at 1 µM,KIT; [2],< 25%
same,remaining activity at 1 µM,KIT; [3],5%
same,remaining activity at 1 µM,BRK,< 25%
same,remaining activity at 1 µM,FGR,< 25%
same,remaining activity at 1 µM,CSF1-R,< 25%
same,remaining activity at 1 µM,EPHA3; [2],< 25%
same,remaining activity at 1 µM,EPHA3; [3],0%
same,remaining activity at 1 µM,ACV-R1,25 to 50%
same,remaining activity at 1 µM,EPHB2,< 25%
same,remaining activity at 1 µM,SIK2,< 25%
same,remaining activity at 1 µM,MAP4K5,25 to 50%
same,remaining activity at 1 µM,EPHB1; [2],< 25%
same,remaining activity at 1 µM,EPHB1; [3],0%
same,remaining activity at 1 µM,ZAK,< 25%
same,remaining activity at 1 µM,ACV-RL1,25 to 50%
same,remaining activity at 1 µM,LYN,< 25%
same,Mean recovery B > A,MDCK-wild type cells,120%
same,remaining activity at 1 µM,FRK,< 25%
same,remaining activity at 1 µM,BLK,< 25%
same,remaining activity at 1 µM,TEC,< 25%
same,remaining activity at 1 µM,CSK,< 25%
same,remaining activity at 1 µM,SIK1,< 25%
same,remaining activity at 1 µM,NLK,25 to 50%
same,Mean recovery A > B,MDCK-MDR1 cells,93%
same,remaining activity at 1 µM,p38-alpha,25 to 50%
same,remaining activity at 1 µM,ACV-R1B,25 to 50%
same,remaining activity at 1 µM,PDGFR-beta; [4],< 25%
same,remaining activity at 1 µM,PDGFR-beta; [3],6%
same,remaining activity at 1 µM,RET; [5],~100%
same,remaining activity at 1 µM,SIK3,< 25%
same,remaining activity at 1 µM,NIK,100%
same,remaining activity at 1 µM,FYN,< 25%
same,remaining activity at 1 µM,RIPK2,< 25%
same,remaining activity at 1 µM,ABL2,< 25%
same,remaining activity at 1 µM,SRMS,25 to 50%
same,remaining activity at 1 µM,HCK,< 25%
"Cc1nc(Nc2ncc(C(=O)Nc3c(C)cccc3Cl)s2)cc(N2CCN(CCO)CC2)n1 [Compound A8, N-(2-chloro-6-methylphenyl)-2-((6-(4-(2-hydroxyethyl)piperazin-1-yl)-2-methylpyrimidin-4-yl)amino)thiazole-5-carboxamide, reference compound]",remaining activity at 1 µM,PDGFR-alpha,< 25%
same,remaining activity at 1 µM,ACK1,< 25%
same,remaining activity at 1 µM,TXK,< 25%
same,remaining activity at 1 µM,DDR2,< 25%
same,remaining activity at 1 µM,FGR,< 25%
same,remaining activity at 1 µM,"BMPR1A; BMPR1A, 1 uM compound, read-out: % residual activity class (FIG. 3)",25 to 50%
same,remaining activity at 1 µM,BMPR1A; [3],42%
same,remaining activity at 1 µM,"EPHA3; EPHA3, 1 uM compound, read-out: % residual activity class (FIG. 3)",< 25%
same,remaining activity at 1 µM,"ACV-R1; ACV-R1, 1 uM compound",< 25%
same,remaining activity at 1 µM,"EPHB2; EPHB2, 1 uM compound",< 25%
same,remaining activity at 1 µM,"SIK2; SIK2, 1 uM compound",< 25%
same,remaining activity at 1 µM,"MAP4K5; MAP4K5, 1 uM compound",< 25%
same,remaining activity at 1 µM,EPHB1; [2],< 25%
same,remaining activity at 1 µM,ACV-R2B,< 25%
same,remaining activity at 1 µM,ZAK,< 25%
same,remaining activity at 1 µM,ACV-RL1,< 25%
same,remaining activity at 1 µM,LYN,< 25%
same,Mean Papp A > B,MDCK-wild type cells,21
same,remaining activity at 1 µM,FRK,< 25%
same,remaining activity at 1 µM,BLK,< 25%
same,remaining activity at 1 µM,TEC,< 25%
same,remaining activity at 1 µM,CSK,< 25%
same,remaining activity at 1 µM,"SIK1; SIK1, 1 uM compound",< 25%
same,remaining activity at 1 µM,NLK,< 25%
same,Mean Papp A > B,MDCK-MDR1 cells,2.4
same,cardiac adverse reactions,[1]; 258 patients taking dasatinib,5.8 % of patients
same,"cardiomyopathy, heart failure congestive, diastolic dysfunction, fatal myocardial infarction, and left ventricular dysfunction",[1]; 258 patients taking dasatinib,1.6 % of patients
same,other cases of severe haemorrhage,[1]; all clinical studies,2 % of patients
same,severe central nervous system (CNS) haemorrhages (including fatalities),[1]; all clinical studies,1 % of patients
same,"severe gastrointestinal haemorrhage, including fatalities",[1]; all clinical studies,4 % of patients
same,QT prolongation,[1]; clinical trials,up to 1 % of CML patients
same,severe fluid retention,[1]; clinical trials,up to 10 % of patients
same,remaining activity at 1 µM,"p38-alpha; p38-alpha, 1 uM compound",< 25%
same,remaining activity at 1 µM,"ACV-R1B; ACV-R1B, 1 uM compound",< 25%
same,remaining activity at 1 µM,PDGFR-beta; [4],< 25%
same,remaining activity at 1 µM,PDGFR-beta; [3],2%
same,Residual activity (%) at 1 uM,"RET; RET, 1 µM",39%
same,remaining activity at 1 µM,"RET; RET, 1 uM compound, read-out: % residual activity class (FIG. 3)",25 to 50%
same,remaining activity at 1 µM,RET; [5],< 40%
same,remaining activity at 1 µM,"SIK3; SIK3, 1 uM compound",< 25%
same,remaining activity at 1 µM,FYN,< 25%
same,remaining activity at 1 µM,RIPK2,< 25%
same,remaining activity at 1 µM,ABL2,< 25%
same,remaining activity at 1 µM,SRMS,< 25%
same,remaining activity at 1 µM,HCK,< 25%
